From US10105357B2, “Indication of antibiotic drugs for preparation of cancer inhibition pharmaceutical composition” (LAUNX BIOMEDICAL CO., LTD., priority 2014, dated 2018)
Read-outs that look alike come from different tables or passages of the source.

Columns and labels:
[1] = test system: MKN-45 (Gastric Adenocarcinoma); test: Cell viability analysis, gastric cancer MKN-45; assay type: cell-based, human; conditions: Homo sapiens, MKN-45, 72 h
[2] = test system: HCT116 (p53+) (Colorectal Carcinoma)
cancer cell lines = test: Cell viability analysis (WST-1) on cancer cell lines; assay type: cell-based, human; conditions: drug 10 μM, 72 hours, WST-1; Table 3
[3] = test system: HeLa (Cervix Adenocarcinoma); test: Cell viability analysis, cervical cancer HeLa; assay type: cell-based, human; conditions: Homo sapiens, HeLa, 72 h, HeLa; repeated experiment; read-out: The results of antibiotic drug inhibiting cancer cell lines (cell viability analysis), HeLa
[4] = test system: MCF7 (Mammary Gland, Adenocarcinoma); test: Cell viability analysis, breast cancer MCF7; assay type: cell-based, human; conditions: Homo sapiens, MCF7, 72 h
[5] = test system: Hep3B (hepatocellular carcinoma); test: Cell viability analysis, hepatic cancer Hep3B; assay type: cell-based, human; conditions: Homo sapiens, 72 h; Hep3B; repeated experiment; read-out: The results of antibiotic drug inhibiting cancer cell lines (cell viability analysis), Hep3B
[6] = test system: SAS (Tongue squamous cell carcinoma); test: Cell viability analysis, tongue cancer SAS; assay type: cell-based, human; conditions: Homo sapiens, 72 h; SAS; repeated experiment; read-out: The results of antibiotic drug inhibiting cancer cell lines (cell viability analysis), SAS
[7] = test system: AGS (Gastric Adenocarcinoma); test: Cell viability analysis, gastric cancer AGS; assay type: cell-based, human; conditions: Homo sapiens, 72 h
[8] = test system: HI650 (Lung Adenocarcinoma); test: Cell viability analysis, lung cancer HI650; assay type: cell-based, human; conditions: Homo sapiens, NCI-H1650, 72 h
[9] = test system: PC3 (p53−) (Prostate Adenocarcinoma); test: Cell viability analysis, prostate cancer PC3; assay type: cell-based, human; conditions: Homo sapiens, 72 h
[10] = test system: A375 (Amelanotic Melanoma); test: Cell viability analysis, skin cancer A375; assay type: cell-based, human; conditions: Homo sapiens, A-375, 72 h
[11] = test system: BCC (basal cell carcinoma); test: Cell viability analysis, skin cancer BCC; assay type: cell-based, human; conditions: Homo sapiens, 72 h; BCC; repeated experiment; read-out: The results of antibiotic drug inhibiting cancer cell lines (cell viability analysis), BCC
[12] = test system: TSGH-8301 (Urinary Bladder Carcinoma); test: Cell viability analysis, bladder cancer TSGH-8301; assay type: cell-based, human; conditions: Homo sapiens, 72 h
[13] = test system: HL-60 (Acute Promyelocytic Leukemia); test: Cell viability analysis, leukemia HL-60; assay type: cell-based, human; conditions: Homo sapiens, HL-60, 72 h, drug 10 μM, 72 hours, WST-1, OD450 nm; read-out: cell viability (survival rate), HL-60
BxPC-3 = test: Cell viability analysis, pancreatic cancer BxPC-3; assay type: cell-based, human; conditions: Homo sapiens, 72 h; BxPC-3; repeated experiment; read-out: The results of antibiotic drug inhibiting cancer cell lines (cell viability analysis), BxPC-3
NIH: OVCAR-3 = test: Cell viability analysis, ovarian cancer NIH: OVCAR-3; assay type: cell-based, human; conditions: Homo sapiens, 72 h; NIH-OVCAR-3; repeated experiment; read-out: The results of antibiotic drug inhibiting cancer cell lines (cell viability analysis), NIH-OVCAR-3
[14] = test system: A549 (Lung Adenocarcinoma); test: Cell viability analysis, lung cancer A549; assay type: cell-based, human; conditions: Homo sapiens, A549, 72 h
U-2OS = test: Cell viability analysis, osteosarcoma U-2OS; assay type: cell-based, human; conditions: Homo sapiens, 72 h; U2OS; repeated experiment; read-out: The results of antibiotic drug inhibiting cancer cell lines (cell viability analysis), U2OS
[15] = test system: HepG2 (Hepatocellular Carcinoma); test: Cell viability analysis, hepatic cancer HepG2; assay type: cell-based, human; conditions: Homo sapiens, HepG2, 72 h
[16] = test system: MDA-MB-231 (Mammary Gland, Adenocarcinoma); test: Cell viability analysis, breast cancer MDA-MB-231; assay type: cell-based, human; conditions: Homo sapiens, MDA-MB-231, 72 h; MDA-MB231; repeated experiment; read-out: The results of antibiotic drug inhibiting cancer cell lines (cell viability analysis), MDA-MB231
[17] = test system: LoVo (Colorectal Adenocarcinoma); test: Cell viability analysis, colon cancer LoVo; assay type: cell-based, human; conditions: Homo sapiens, LoVo, 72 h, read-out: The results of antibiotic drug inhibiting cancer cell lines (cell viability analysis), LoVo; repeated experiment
AsPC-1 = test: Cell viability analysis, pancreatic cancer AsPC-1; assay type: cell-based, human; conditions: Homo sapiens, ASPC1, 72 h; AsPC-1; repeated experiment; read-out: The results of antibiotic drug inhibiting cancer cell lines (cell viability analysis), AsPC-1
[18] = test system: 786-O (Renal adenocarcinoma); test: Cell viability analysis, renal cancer 786-O; assay type: cell-based, human; conditions: Homo sapiens, 786-0, 72 h; 786-O; repeated experiment; read-out: The results of antibiotic drug inhibiting cancer cell lines (cell viability analysis), 786-O
TOV-21G = test: Cell viability analysis, ovarian cancer TOV-21G; assay type: cell-based, human; conditions: Homo sapiens, TOV21G, 72 h; TOV-21G; repeated experiment; read-out: The results of antibiotic drug inhibiting cancer cell lines (cell viability analysis), TOV-21G
T24 = test: Cell viability analysis, bladder cancer T24; assay type: cell-based, human; conditions: Homo sapiens, T-24, 72 h; T24; repeated experiment; read-out: The results of antibiotic drug inhibiting cancer cell lines (cell viability analysis), T24

CC(C)c1nc(N(C)S(C)(=O)=O)nc(-c2ccc(F)cc2)c1/C=C/[C@@H](O)C[C@@H](O)CC(=O)O [Rosuvastatin calcium (Crestor), Rosuvastatin calcium] was tested. Which viability at 10 µM ([1]; MKN-45, repeated experiment, read-out: The results of antibiotic drug inhibiting cancer cell lines (cell viability analysis), MKN-45) did it give?
The viability at 10 µM was 110%.

And the viability at 10 µM ([1]; drug 10 μM, 72 hours, WST-1, OD450 nm, read-out: cell viability (survival rate), MKN-45)?
Its viability at 10 µM is 83.8%.

And the viability [2]?
Its viability is 85.6%.

What about the “inhibition effect on different cancer cell lines” value (cancer cell lines) of the same compound?
Its value is “significant inhibition effect”.

What about the viability at 10 µM [3] of the same compound?
The viability at 10 µM was 97.1%.

And the viability at 10 µM ([4]; MCF-7, repeated experiment, read-out: The results of antibiotic drug inhibiting cancer cell lines (cell viability analysis), MCF-7)?
Its viability at 10 µM is 85.9%.

What about the viability at 10 µM ([4]; drug 10 μM, 72 hours, WST-1, OD450 nm, read-out: cell viability (survival rate), MCF7) of the same compound?
Its viability at 10 µM is 88.9%.

And the viability at 10 µM [5]?
Its viability at 10 µM is 109%.

What about the viability at 10 µM [6] of the same compound?
The viability at 10 µM was 93.3%.

And the viability at 10 µM ([7]; AGS, repeated experiment, read-out: The results of antibiotic drug inhibiting cancer cell lines (cell viability analysis), AGS)?
Its viability at 10 µM is 104%.

And the viability at 10 µM ([7]; drug 10 μM, 72 hours, WST-1, OD450 nm, read-out: cell viability (survival rate), AGS)?
Its viability at 10 µM is 55.9%.

And the viability at 10 µM ([8]; H1650, repeated experiment, read-out: The results of antibiotic drug inhibiting cancer cell lines (cell viability analysis), H1650)?
The viability at 10 µM was 76.7%.

And the viability at 10 µM ([8]; drug 10 μM, 72 hours, WST-1, OD450 nm, read-out: cell viability (survival rate), H1650)?
The viability at 10 µM was 80.8%.

And the viability at 10 µM ([9]; PC-3, repeated experiment, read-out: The results of antibiotic drug inhibiting cancer cell lines (cell viability analysis), PC-3)?
Its viability at 10 µM is 95.7%.

What about the viability at 10 µM ([9]; drug 10 μM, 72 hours, WST-1, OD450 nm, read-out: cell viability (survival rate), PC3) of the same compound?
The viability at 10 µM was 94.3%.

And the viability at 10 µM ([10]; A375, repeated experiment, read-out: The results of antibiotic drug inhibiting cancer cell lines (cell viability analysis), A375)?
Its viability at 10 µM is 105%.

And the viability at 10 µM ([10]; drug 10 μM, 72 hours, WST-1, OD450 nm, read-out: cell viability (survival rate), A375)?
Its viability at 10 µM is 55.6%.

What about the viability at 10 µM [11] of the same compound?
Its viability at 10 µM is 104%.

What about the viability at 10 µM ([12]; TSGH-8301, repeated experiment, read-out: The results of antibiotic drug inhibiting cancer cell lines (cell viability analysis), TSGH-8301) of the same compound?
Its viability at 10 µM is 113%.

And the viability at 10 µM ([12]; drug 10 μM, 72 hours, WST-1, OD450 nm, read-out: cell viability (survival rate), TSGH)?
Its viability at 10 µM is 56%.

And the viability at 10 µM [13]?
The viability at 10 µM was 81.7%.

What about the viability at 10 µM (BxPC-3) of the same compound?
Its viability at 10 µM is 65.5%.

And the viability at 10 µM (NIH: OVCAR-3)?
Its viability at 10 µM is 102%.

What about the viability at 10 µM ([14]; A549, repeated experiment, read-out: The results of antibiotic drug inhibiting cancer cell lines (cell viability analysis), A549) of the same compound?
The viability at 10 µM was 95.1%.

And the viability at 10 µM ([14]; drug 10 μM, 72 hours, WST-1, OD450 nm, read-out: cell viability (survival rate), A549)?
The viability at 10 µM was 97%.

What about the viability at 10 µM (U-2OS) of the same compound?
Its viability at 10 µM is 102%.

And the viability at 10 µM ([15]; HepG2, repeated experiment, read-out: The results of antibiotic drug inhibiting cancer cell lines (cell viability analysis), HepG2)?
Its viability at 10 µM is 108%.

And the viability at 10 µM ([15]; drug 10 μM, 72 hours, WST-1, OD450 nm, read-out: cell viability (survival rate), HepG2)?
The viability at 10 µM was 73.7%.

And the viability at 10 µM [16]?
Its viability at 10 µM is 90.2%.

What about the viability at 10 µM [17] of the same compound?
Its viability at 10 µM is 103%.

What about the viability at 10 µM (AsPC-1) of the same compound?
Its viability at 10 µM is 80.2%.

What about the viability at 10 µM [18] of the same compound?
Its viability at 10 µM is 92.5%.

What about the viability at 10 µM (TOV-21G) of the same compound?
The viability at 10 µM was 80.4%.

And the viability at 10 µM (T24)?
Its viability at 10 µM is 75.9%.
